In PMC2946083 (Bioorganic & medicinal chemistry letters, 2010):

Legend:
A1 AR = target: T1, A1 AR (Homo sapiens, UniProt P30542); experiment: Radioligand binding at human A1 AR
T1 sequence (P30542 1-326): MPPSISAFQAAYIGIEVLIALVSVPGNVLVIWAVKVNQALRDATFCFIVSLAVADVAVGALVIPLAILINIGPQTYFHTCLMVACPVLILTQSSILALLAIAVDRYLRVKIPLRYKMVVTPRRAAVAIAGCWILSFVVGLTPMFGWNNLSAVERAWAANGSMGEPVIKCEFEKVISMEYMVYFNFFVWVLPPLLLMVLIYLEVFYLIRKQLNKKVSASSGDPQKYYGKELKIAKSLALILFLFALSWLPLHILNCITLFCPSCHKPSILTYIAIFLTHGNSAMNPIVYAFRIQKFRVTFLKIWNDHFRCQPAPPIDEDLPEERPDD

A2A AR = A2A AR (Homo sapiens, UniProt P29274); experiment: Radioligand binding at human A2A AR; conditions: A2A vs A1 and A3 ARs
Sequence of A2A AR (P29274 whole entry): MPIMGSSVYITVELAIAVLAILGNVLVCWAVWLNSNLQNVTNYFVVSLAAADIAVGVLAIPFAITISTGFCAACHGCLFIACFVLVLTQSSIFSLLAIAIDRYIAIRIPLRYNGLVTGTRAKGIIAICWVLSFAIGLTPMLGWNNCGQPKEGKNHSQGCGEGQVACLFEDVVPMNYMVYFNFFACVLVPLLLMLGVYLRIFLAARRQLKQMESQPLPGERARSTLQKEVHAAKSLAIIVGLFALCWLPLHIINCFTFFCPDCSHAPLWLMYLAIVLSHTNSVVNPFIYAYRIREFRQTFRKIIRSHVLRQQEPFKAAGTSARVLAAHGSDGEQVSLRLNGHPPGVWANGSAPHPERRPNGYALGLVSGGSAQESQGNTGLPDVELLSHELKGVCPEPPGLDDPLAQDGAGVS

Nc1nc2c(cnn2CCCc2ccc(OCCF)cc2)c2nc(-c3ccco3)nn12 [Compound 5]
Ki (A1 AR): ~10 µM | Selectivity for the A2A AR in comparison to the A1 and A3 ARs (A2A AR): highly selective
